Molecules are shown by their SMILES. Activity calls are given as the source filed them. How the calls were made is not given here.

This data set deals with CCRIS mutagenicity, Ames/micronucleus/aberration tests. The data set can be described thus: CCRIS mutagenicity studies.
The mark [1] stands for this setting: Test System: AMES SALMONELLA TYPHIMURIUM, Strain/Indicator: TA98, Metabolic Activation: NONE, Method: STANDARD PLATE.
Where [2] appears, read: Test System: AMES SALMONELLA TYPHIMURIUM, Strain/Indicator: TA100, Metabolic Activation: NONE, Method: STANDARD PLATE.

`CC(C)=CCOc1c2occc2cc2ccc(=O)oc12`: the mutagenic call (Test System: AMES SALMONELLA TYPHIMURIUM, Strain/Indicator: TA92, Metabolic Activation: NONE, Method: SPOT TEST) was “active; positive”; the mutagenic call (Test System: AMES SALMONELLA TYPHIMURIUM, Strain/Indicator: TA92, Metabolic Activation: RAT, LIVER, S-9, AROCLOR 1254, Method: SPOT TEST) was “active; positive”; the mutagenic call (Test System: AMES SALMONELLA TYPHIMURIUM, Strain/Indicator: TA94, Metabolic Activation: NONE, Method: SPOT TEST) is “inactive; negative”; the mutagenic call (Test System: AMES SALMONELLA TYPHIMURIUM, Strain/Indicator: TA94, Metabolic Activation: RAT, LIVER, S-9, AROCLOR 1254, Method: SPOT TEST) was “inactive; negative”; the mutagenic call (Test System: AMES SALMONELLA TYPHIMURIUM, Strain/Indicator: TA97, Metabolic Activation: NONE, Method: SPOT TEST) was “active; positive”; the mutagenic call (Test System: AMES SALMONELLA TYPHIMURIUM, Strain/Indicator: TA97, Metabolic Activation: RAT, LIVER, S-9, AROCLOR 1254, Method: SPOT TEST) was “active; positive”. Further, the mutagenic call is, setting by setting: (Test System: AMES SALMONELLA TYPHIMURIUM, Strain/Indicator: TA98, Metabolic Activation: NONE, Method: SPOT TEST) “active; positive”; under setting [1], “inactive; negative”; (Test System: AMES SALMONELLA TYPHIMURIUM, Strain/Indicator: TA98, Metabolic Activation: RAT, LIVER, S-9, AROCLOR 1254, Method: SPOT TEST) “active; positive”; (Test System: AMES SALMONELLA TYPHIMURIUM, Strain/Indicator: TA98, Metabolic Activation: RAT, LIVER, S-9, PHENOBARBITAL, Method: STANDARD PLATE) “inactive; negative”; (Test System: AMES SALMONELLA TYPHIMURIUM, Strain/Indicator: TA100, Metabolic Activation: NONE, Method: SPOT TEST) “active; positive”; under setting [2], “active; positive”. In addition, the mutagenic call by setting is: (Test System: AMES SALMONELLA TYPHIMURIUM, Strain/Indicator: TA100, Metabolic Activation: RAT, LIVER, S-9, AROCLOR 1254, Method: SPOT TEST) “active; positive”; (Test System: AMES SALMONELLA TYPHIMURIUM, Strain/Indicator: TA102, Metabolic Activation: NONE, Method: SPOT TEST) “inactive; negative”; (Test System: AMES SALMONELLA TYPHIMURIUM, Strain/Indicator: TA102, Metabolic Activation: RAT, LIVER, S-9, AROCLOR 1254, Method: SPOT TEST) “inactive; negative”.

Regarding `O=c1c2ccccc2[se]n1-c1ccccc1`, the mutagenic call is, setting by setting: under setting [1], “inactive; negative”; (Test System: AMES SALMONELLA TYPHIMURIUM, Strain/Indicator: TA98, Metabolic Activation: RAT LIVER S-9, PHENOBARBITAL AND 5,6-BENZOFLAVONE, Method: STANDARD PLATE) “inactive; negative”; under setting [2], “inactive; negative”; (Test System: AMES SALMONELLA TYPHIMURIUM, Strain/Indicator: TA100, Metabolic Activation: RAT LIVER S-9, PHENOBARBITAL AND 5,6-BENZOFLAVONE, Method: STANDARD PLATE) “inactive; negative”; (Test System: AMES SALMONELLA TYPHIMURIUM, Strain/Indicator: TA1535, Metabolic Activation: NONE, Method: STANDARD PLATE) “inactive; negative”; (Test System: AMES SALMONELLA TYPHIMURIUM, Strain/Indicator: TA1535, Metabolic Activation: RAT LIVER S-9, PHENOBARBITAL AND 5,6-BENZOFLAVONE, Method: STANDARD PLATE) “inactive; negative”. Also, the mutagenic call by setting is: (Test System: AMES SALMONELLA TYPHIMURIUM, Strain/Indicator: TA1537, Metabolic Activation: NONE, Method: STANDARD PLATE) “inactive; negative”; (Test System: AMES SALMONELLA TYPHIMURIUM, Strain/Indicator: TA1537, Metabolic Activation: RAT LIVER S-9, PHENOBARBITAL AND 5,6-BENZOFLAVONE, Method: STANDARD PLATE) “inactive; negative”; (Test System: E.COLI, Strain/Indicator: WP2 UVRA, Metabolic Activation: NONE, Method: STANDARD PLATE) “inactive; negative”; (Test System: E.COLI, Strain/Indicator: WP2 UVRA, Metabolic Activation: RAT LIVER S-9, PHENOBARBITAL AND 5,6-BENZOFLAVONE, Method: STANDARD PLATE) “inactive; negative”.

Turning to `[Cl][Ti]([Cl])[Cl]`, the mutagenic call reads like this: (Test System: AMES SALMONELLA TYPHIMURIUM, Strain/Indicator: TA98, Metabolic Activation: NONE, Method: PREINCUBATION) “inactive; negative”; (Test System: AMES SALMONELLA TYPHIMURIUM, Strain/Indicator: TA98, Metabolic Activation: RAT LIVER S-9, PHENOBARBITAL AND BETA-NAPHTHOFLAVONE, Method: PREINCUBATION) “inactive; negative”; (Test System: AMES SALMONELLA TYPHIMURIUM, Strain/Indicator: TA100, Metabolic Activation: NONE, Method: PREINCUBATION) “inactive; negative”; (Test System: AMES SALMONELLA TYPHIMURIUM, Strain/Indicator: TA100, Metabolic Activation: RAT LIVER S-9, PHENOBARBITAL AND BETA-NAPHTHOFLAVONE, Method: PREINCUBATION) “active; positive”; (Test System: AMES SALMONELLA TYPHIMURIUM, Strain/Indicator: TA1535, Metabolic Activation: NONE, Method: PREINCUBATION) “inactive; negative”; (Test System: AMES SALMONELLA TYPHIMURIUM, Strain/Indicator: TA1535, Metabolic Activation: RAT LIVER S-9, PHENOBARBITAL AND BETA-NAPHTHOFLAVONE, Method: PREINCUBATION) “inactive; negative”. For the same compound, the mutagenic call reads like this: (Test System: AMES SALMONELLA TYPHIMURIUM, Strain/Indicator: TA1537, Metabolic Activation: NONE, Method: PREINCUBATION) “inactive; negative”; (Test System: AMES SALMONELLA TYPHIMURIUM, Strain/Indicator: TA1537, Metabolic Activation: RAT LIVER S-9, PHENOBARBITAL AND BETA-NAPHTHOFLAVONE, Method: PREINCUBATION) “inactive; negative”; (Test System: AMES SALMONELLA TYPHIMURIUM, Strain/Indicator: TA1538, Metabolic Activation: NONE, Method: PREINCUBATION) “inactive; negative”; (Test System: AMES SALMONELLA TYPHIMURIUM, Strain/Indicator: TA1538, Metabolic Activation: RAT LIVER S-9, PHENOBARBITAL AND BETA-NAPHTHOFLAVONE, Method: PREINCUBATION) “inactive; negative”; (Test System: E.COLI, Strain/Indicator: WP2UVRA, Metabolic Activation: NONE, Method: PREINCUBATION) “inactive; negative”; (Test System: E.COLI, Strain/Indicator: WP2UVRA, Metabolic Activation: RAT LIVER S-9, PHENOBARBITAL AND BETA-NAPHTHOFLAVONE, Method: PREINCUBATION) “inactive; negative”.
